Positions count from the first letter of the chain named. “And” between values parts separate entries of the source, which are not always exact repeats. Equal values may be shown once.
Experiments:
Type in all cases: cell-based
[1] = target: T1, Human K2P13.1 THIK-1 (WT) (Homo sapiens, UniProt Q9HB14); experiment: Macroscopic inside-out excised patch recordings from Xenopus oocytes expressing WT THIK-1; compounds applied to the intracellular side; conditions: for extent of activation by oleoyl-CoA: 5 µM oleoyl-CoA; for Fold activation: 5.0 µM oleoyl-CoA
T1 construct: expressed in transfected cells; host or cells: Xenopus oocytes (mRNA injection)
T1 sequence (Q9HB14 1-408): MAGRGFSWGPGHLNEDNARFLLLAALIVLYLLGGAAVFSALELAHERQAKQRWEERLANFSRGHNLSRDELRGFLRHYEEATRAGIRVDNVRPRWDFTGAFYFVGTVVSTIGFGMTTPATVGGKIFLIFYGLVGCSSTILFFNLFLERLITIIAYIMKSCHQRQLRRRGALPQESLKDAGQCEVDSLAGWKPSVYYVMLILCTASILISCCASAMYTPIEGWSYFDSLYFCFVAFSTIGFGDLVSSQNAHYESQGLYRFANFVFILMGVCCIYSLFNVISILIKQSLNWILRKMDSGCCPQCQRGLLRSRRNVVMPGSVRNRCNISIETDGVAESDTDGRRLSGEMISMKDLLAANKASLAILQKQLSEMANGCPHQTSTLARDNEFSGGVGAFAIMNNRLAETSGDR
From the text: (§1) Human K2P13.1 THIK-1 (GenBank accession number: NM_022054) and human K2P12.1 THIK-2 (NM_022055.1) were used in this study. For functional expression studies, the respective K^+ channel subtype coding sequences were subcloned into the oocyte expression vector pSGEM or the dual-purpose expression vector pFAW[41] and verified by sequencing. All mutant channels were obtained by site-directed mutagenesis and verified by sequencing. To increase surface expression and macroscopic currents, measurements of THIK-2 channels used a mutated ER retention motif, (R11A R12A R14A R15A R16A; THIK-2*)[20]. Vector DNA was linearized with NheI or MluI, and mRNA was synthesized in vitro using the SP6 or T7 AmpliCap Max High Yield Message Maker Kit (Cellscript, USA) or HiScribe T7 ARCA mRNA Kit (New England Biolabs).
(§2) Two-electrode voltage–clamp (TEVC) studies were performed in Xenopus oocytes. All animal use conformed to the Guide for the Care and Use of Laboratory Animals (NIH Publication 85–23), and all experiments using Xenopus toads were approved by the local ethics panels. Oocytes were stored at 17 °C in ND96 recording solution composed of (in mM): 96 NaCl, 2 KCl, 1.8 CaCl2, 1 MgCl2, 5 HEPES (pH 7.5 adjusted with NaOH and HCl), supplemented with Na-pyruvate (275 mg L^–1), theophylline (90 mg L^–1) and gentamicin (50 mg L^–1). Oocytes were injected with 1 ng mRNA for WT or mutant channels, and were incubated for 24–48 h at 17 °C. Two-electrode voltage clamp recordings were then performed as previously described[42],[43]. For macroscopic patch–clamp measurements, oocytes were obtained as described above incubated at 17 °C in a solution containing (mM): 54 NaCl, 30 KCl, 2.4 NaHCO3, 0.82 MgSO4 ×7 H2O, 0.41 CaCl2, 0.33 Ca(NO3)2 ×4 H2O and 7.5 TRIS (pH 7.4 adjusted with NaOH and HCl) for 1–4 days before use. Excised patch recordings in inside-out configuration conditions were performed at room temperature. Patch pipettes were made from thick-walled borosilicate glass GB 200TF-8P (Science Products), had resistances of 0.2–0.5 MΩ (tip diameter, 10–25 µm) and filled with a pipette solution (in mM): 120 KCl, 10 HEPES and 3.6 CaCl2 (pH 7.4 adjusted with KOH and HCl). Intracellular bath solutions and compounds were applied to the cytoplasmic side of excised patches for the various K^+ channels through a gravity flow multi-barrel pipette system. The intracellular solution had the following composition (in mM): 120 KCl, 10 HEPES, 2 EGTA and 1 pyrophosphate (pH adjusted with KOH and HCl). Currents were recorded with an EPC10 amplifier (HEKA Electronics) and sampled at 10 kHz or higher, with filtering set to 3 kHz (–3 dB) or higher, as appropriate for sampling rate. For measurements of GPCR activation, whole-cell currents were recorded for THIK-1 in transiently transfected HEK-293 cells. Cells were stimulated by a ramp protocol between −100 and +60 mV (holding potential, −80 mV). The pipette solution was composed of (in mM): 140 KCl, 2 MgCl2, 1 CaCl2, 2.5 EGTA and 10 HEPES (pH 7.3 adjusted with KOH and HCl). The extracellular bath solution had the following composition (in mM): 135 NaCl, 5 KCl, 2 MgCl2, 2 CaCl2, 10 glucose and 10 HEPES pH (pH 7.3 adjusted with NaOH and HCl). Oxotremorine M (Oxo-M) was added to extracellular bath solution to obtain the final concentration. Single-channel currents were recorded with an Axopatch 200B amplifier through a Digidata 1440A digitizer (Molecular Devices). Data were filtered at 2 kHz and recorded at a 200-kHz sampling rate with the program Clampex (Molecular Devices). Pipette solution and bath solution for cell-attached recordings contained (in mM): 140 KCl, 2 MgCl2, 1 CaCl2 and 10 HEPES (pH 7.4 adjusted with KOH and HCl). For inside-out recordings, the bath solution contained (in mM): 140 KCl, 2 MgCl2, 1 CaCl2 and 10 HEPES (pH 7.2 adjusted with KOH and HCl). All experiments were conducted at room temperature. […]

[2] = target: T2, THIK-1 F262A (Homo sapiens, UniProt Q9HB14, F262A); experiment: Inside-out excised patch recordings, oocytes, THIK-1 F262A mutant (lipid activation); conditions: THIK-1 F262A
T2 construct: expressed in transfected cells; host or cells: Xenopus oocytes (mRNA injection)
T2 sequence (Q9HB14 1-408 F262A): T1 sequence (Q9HB14 1-408) with F262A
From the text: as §1, §2

[3] = target: T3, THIK-1 R92A (Homo sapiens, UniProt Q9HB14, R92A); experiment: Inside-out excised patch recordings, oocytes, THIK-1 R92A mutant (lipid activation); conditions: THIK-1 R92A
T3 construct: expressed in transfected cells; host or cells: Xenopus oocytes (mRNA injection)
T3 sequence (Q9HB14 1-408 R92A): T1 sequence (Q9HB14 1-408) with R92A
From the text: as §1, §2

extent of activation by oleoyl-CoA ([1]; WT): 14 ± 1 fold
extent of activation by oleoyl-CoA ([1]; WT preinhibited with halothane (15.2 mM)): 8 ± 2 fold
Fold activation ([1]; WT, Halothane pre-inhibited (15.2 mM halothane), mean): 8.43
Fold activation ([1]; WT, absence of halothane, mean): 13.60
Fold activation with 5.0 µM oleoyl-CoA ([1]; THIK-1 WT, mean): 13.60
Fold activation with 5.0 µM oleoyl-CoA ([2]; mean): 17.39
Fold activation with 5.0 µM oleoyl-CoA ([3]; mean): 19.67
SMILES: CCCCCCCC/C=C\CCCCCCCC(=O)SCCNC(=O)CCNC(=O)[C@H](O)C(C)(C)COP(=O)(O)OP(=O)(O)OC[C@H]1O[C@@H](n2cnc3c(N)ncnc32)[C@H](O)[C@@H]1OP(=O)(O)O [oleoyl-CoA]
Fold activation ([1]; WT, Halothane pre-inhibited (15.2 mM halothane), individual recordings): 8.238 and 0.783 and 13.259 and 5.975 and 16.259 and 6.147 and 12.474 and 4.311
Fold activation with 5.0 µM oleoyl-CoA ([2]; individual recordings): 16.700 and 14.500 and 16.910 and 15.530 and 18.460 and 22.210
Fold activation with 5.0 µM oleoyl-CoA ([3]; individual recordings): 19.660 and 15.940 and 13.100 and 29.730 and 21.570 and 18.010
